#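 Results reflect a 48-hour exposure of cells in 96-well plates to compound at five concentrations. At the GI50, growth is halved.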 Calls of active or inactive are those of the source. No stated cut-off is given here; in the data, active = GI50 up to about 1.1 µM and inactive = higher.
# What was measured:
# Test in all cases: inhibition of tumour cell growth, NCI panel, 48 h
# NCI-H23 = system: NCI-H23
# SNB-19 = system: SNB-19
# NCI-H226 = system: NCI-H226
# HOP-62 = system: HOP-62
# OVCAR-4 = system: OVCAR-4
# LXFL 529 = system: LXFL 529
# SK-OV-3 = system: SK-OV-3
# SNB-75 = system: SNB-75
# A549 = system: A549
# 786-0 = system: 786-0
# UACC-257 = system: UACC-257
# RXF 393 = system: RXF 393
# SK-MEL-5 = system: SK-MEL-5
# M14 = system: M14
# M19-MEL = system: M19-MEL
# TK-10 = system: TK-10
# HCT-15 = system: HCT-15
# UO-31 = system: UO-31
# DLD-1 = system: DLD-1
# SK-MEL-2 = system: SK-MEL-2
# MOLT-4 = system: MOLT-4
# EKVX = system: EKVX
# IGROV-1 = system: IGROV-1
# SF-539 = system: SF-539
# HCC 2998 = system: HCC 2998
# SK-MEL-28 = system: SK-MEL-28
# HCT-116 = system: HCT-116
# SNB-78 = system: SNB-78
# NCI-H460 = system: NCI-H460
# SW-620 = system: SW-620
# SF-295 = system: SF-295
# OVCAR-8 = system: OVCAR-8
# HL-60 = system: HL-60
# HOP-18 = system: HOP-18
# XF498 = system: XF498
# U-251 = system: U-251
# SN12C = system: SN12C
# UACC-62 = system: UACC-62
# LOX IMVI = system: LOX IMVI
# DMS-114 = system: DMS-114
# HOP-92 = system: HOP-92
# KM-20L2 = system: KM-20L2
# CAKI-1 = system: CAKI-1
# CCRF-CEM = system: CCRF-CEM
# HT-29 = system: HT-29
# DMS-273 = system: DMS-273
# KM12 = system: KM12
# ACHN = system: ACHN
# SF-268 = system: SF-268
# OVCAR-3 = system: OVCAR-3
# COLO 205 = system: COLO 205
# OVCAR-5 = system: OVCAR-5
# Malme-3M = system: Malme-3M
# K562 = system: K562
# NCI-H522 = system: NCI-H522
# SR = system: SR
# RPMI-8226 = system: RPMI-8226
# A498 = system: A498
smiles,measurement,setting,value
Cc1nc(Nc2ccccc2)sc1C(=O)CC(=O)C(=O)NC12CC3CC(CC(C3)C1)C2,GI50,NCI-H23,> 100 µM (inactive)
same,GI50,SNB-19,> 100 µM (inactive)
same,GI50,NCI-H226,> 100 µM (inactive)
same,GI50,HOP-62,83.2 µM (inactive)
same,GI50,OVCAR-4,> 100 µM (inactive)
same,GI50,LXFL 529,99.5 µM (inactive)
same,GI50,SK-OV-3,> 100 µM (inactive)
same,GI50,SNB-75,33.9 µM (inactive)
same,GI50,A549,> 100 µM (inactive)
same,GI50,786-0,> 100 µM (inactive)
same,GI50,UACC-257,> 100 µM (inactive)
same,GI50,RXF 393,54.6 µM (inactive)
same,GI50,SK-MEL-5,74.5 µM (inactive)
same,GI50,M14,> 100 µM (inactive)
same,GI50,M19-MEL,> 100 µM (inactive)
same,GI50,TK-10,> 100 µM (inactive)
same,GI50,HCT-15,> 100 µM
same,GI50,UO-31,92.3 µM (inactive)
same,GI50,DLD-1,80.5 µM (inactive)
same,GI50,SK-MEL-2,> 100 µM (inactive)
same,GI50,MOLT-4,> 100 µM (inactive)
same,GI50,EKVX,7.21 µM (inactive)
same,GI50,IGROV-1,84.5 µM (inactive)
same,GI50,SF-539,> 100 µM (inactive)
same,GI50,HCC 2998,> 100 µM (inactive)
same,GI50,SK-MEL-28,> 100 µM (inactive)
same,GI50,HCT-116,> 100 µM (inactive)
same,GI50,SNB-78,> 100 µM (inactive)
same,GI50,NCI-H460,> 100 µM (inactive)
same,GI50,SW-620,> 100 µM (inactive)
same,GI50,SF-295,71.3 µM (inactive)
same,GI50,OVCAR-8,> 100 µM (inactive)
same,GI50,HL-60,92.3 µM (inactive)
same,GI50,HOP-18,> 100 µM (inactive)
same,GI50,XF498,> 100 µM (inactive)
same,GI50,U-251,> 100 µM (inactive)
same,GI50,SN12C,> 100 µM (inactive)
same,GI50,UACC-62,41.4 µM (inactive)
same,GI50,LOX IMVI,50.4 µM (inactive)
same,GI50,DMS-114,78.7 µM (inactive)
same,GI50,HOP-92,23 µM (inactive)
same,GI50,KM-20L2,80.7 µM (inactive)
same,GI50,CAKI-1,65.2 µM (inactive)
same,GI50,CCRF-CEM,82.4 µM (inactive)
same,GI50,HT-29,> 100 µM (inactive)
same,GI50,DMS-273,> 100 µM (inactive)
same,GI50,KM12,> 100 µM (inactive)
same,GI50,ACHN,> 100 µM (inactive)
same,GI50,SF-268,> 100 µM (inactive)
same,GI50,OVCAR-3,> 100 µM (inactive)
same,GI50,COLO 205,> 100 µM (inactive)
same,GI50,OVCAR-5,> 100 µM (inactive)
same,GI50,Malme-3M,> 100 µM (inactive)
same,GI50,K562,> 100 µM (inactive)
same,GI50,NCI-H522,79.6 µM (inactive)
COc1cc2c(cc1OC)C(Cc1ccc(Oc3cc(CC4c5cc(OC)c(OC)cc5CCN4C)ccc3O)cc1)N(C)CC2 (stereo not drawn),GI50,NCI-H23,51.2 µM (inactive)
same,GI50,SNB-19,40.6 µM (inactive)
same,GI50,SR,1.79 µM (inactive)
same,GI50,NCI-H226,22.8 µM (inactive)
same,GI50,HOP-62,24.3 µM (inactive)
same,GI50,OVCAR-4,20.5 µM (inactive)
same,GI50,LXFL 529,14.8 µM (inactive)
same,GI50,SK-OV-3,35.3 µM (inactive)
same,GI50,SNB-75,14.8 µM (inactive)
same,GI50,A549,35.2 µM (inactive)
same,GI50,786-0,13.5 µM (inactive)
same,GI50,UACC-257,16.2 µM (inactive)
same,GI50,RXF 393,11.9 µM (inactive)
same,GI50,SK-MEL-5,15.7 µM (inactive)
same,GI50,M14,15.2 µM (inactive)
same,GI50,M19-MEL,21 µM (inactive)
same,GI50,TK-10,52.7 µM (inactive)
same,GI50,HCT-15,15.6 µM
same,GI50,RPMI-8226,16.9 µM (inactive)
same,GI50,UO-31,14.5 µM (inactive)
same,GI50,DLD-1,18.7 µM (inactive)
same,GI50,SK-MEL-2,16.1 µM (inactive)
same,GI50,MOLT-4,14.2 µM (inactive)
same,GI50,EKVX,88.5 µM (inactive)
same,GI50,IGROV-1,23.1 µM (inactive)
same,GI50,SF-539,16.3 µM (inactive)
same,GI50,HCC 2998,14.3 µM (inactive)
same,GI50,SK-MEL-28,16.1 µM (inactive)
same,GI50,HCT-116,10.3 µM (inactive)
same,GI50,SNB-78,28.5 µM (inactive)
same,GI50,NCI-H460,27.9 µM (inactive)
same,GI50,SW-620,16.6 µM (inactive)
same,GI50,SF-295,26.4 µM (inactive)
same,GI50,OVCAR-8,87.3 µM (inactive)
same,GI50,HL-60,13.4 µM (inactive)
same,GI50,HOP-18,26.5 µM (inactive)
same,GI50,XF498,18.3 µM (inactive)
same,GI50,U-251,16.9 µM (inactive)
same,GI50,SN12C,25.8 µM (inactive)
same,GI50,UACC-62,17.4 µM (inactive)
same,GI50,A498,22 µM (inactive)
same,GI50,LOX IMVI,17.4 µM (inactive)
same,GI50,DMS-114,16.3 µM (inactive)
same,GI50,HOP-92,24.3 µM (inactive)
same,GI50,KM-20L2,13.1 µM (inactive)
same,GI50,CAKI-1,21.7 µM (inactive)
same,GI50,CCRF-CEM,12.7 µM (inactive)
same,GI50,HT-29,13.1 µM (inactive)
same,GI50,DMS-273,21.7 µM (inactive)
same,GI50,KM12,21.9 µM (inactive)
same,GI50,ACHN,16.5 µM (inactive)
same,GI50,SF-268,14.2 µM (inactive)
same,GI50,OVCAR-3,19.5 µM (inactive)
same,GI50,COLO 205,11.3 µM (inactive)
same,GI50,OVCAR-5,> 100 µM (inactive)
same,GI50,Malme-3M,19.5 µM (inactive)
same,GI50,K562,10.2 µM (inactive)
same,GI50,NCI-H522,12 µM (inactive)
